One experiment is filed under the species Homo sapiens. Briefly: Protac activity at E3 Ubiquitin-protein ligase/Focal adhesion kinase in human PC3 cells assessed as induction of FAK protein degradation by immunoblotting analysis relative to control. In kind it is cell-based. For orientation: A western blot detects proteins with antibodies after separation by electrophoresis.
A short description of a further experiment: cells. Conditions: Homo sapiens, PC-3.

Results on 9 molecules are retold here after ChEMBL document CHEMBL4376904, “Bifunctional Pyrimidines as Modulators of Focal Adhesion Kinase” (ACS Med Chem Lett, 2020).

Turning to `Cc1ncsc1-c1ccc(CNC(=O)[C@@H]2C[C@@H](O)CN2C(=O)[C@@H](NC(=O)CCOCCOCCOc2ccc(Nc3ncc(C(F)(F)F)c(NCc4cccc(N(C)S(C)(=O)=O)c4)n3)cc2)C(C)(C)C)cc1`, the Emax – broadly, the maximal effect, on the per cent scale that the assay sets – in the experiment listed under Homo sapiens came to 99%.

With `Cc1ncsc1-c1ccc(CNC(=O)[C@@H]2C[C@@H](O)CN2C(=O)[C@@H](NC(=O)CCOCCOc2ccc(Nc3ncc(C(F)(F)F)c(NCc4cccc(N(C)S(C)(=O)=O)c4)n3)cc2)C(C)(C)C)cc1`, the Emax in the experiment filed under Homo sapiens amounted to 99%. In addition, the DC50 in the experiment “cells” was 3.3 nM.

Turning to `CN(c1cccc(CNc2nc(Nc3ccc(OCCOCCOCCOCCOCCC(=O)NCCOc4cccc5c4C(=O)N(C4CCC(=O)NC4=O)C5=O)cc3)ncc2C(F)(F)F)c1)S(C)(=O)=O` (stereo unspecified), in the experiment filed under Homo sapiens, the Emax worked out at 87%.

As to `Cc1ncsc1-c1ccc(CNC(=O)[C@@H]2C[C@@H](O)CN2C(=O)[C@@H](NC(=O)COCCOc2ccc(Nc3ncc(C(F)(F)F)c(NCc4cccc(N(C)S(C)(=O)=O)c4)n3)cc2)C(C)(C)C)cc1`, in the experiment filed under Homo sapiens, the Emax worked out at 99%.

With `CN(c1cccc(CNc2nc(Nc3ccc(OCCCOCCC(=O)NCCOc4cccc5c4C(=O)N(C4CCC(=O)NC4=O)C5=O)cc3)ncc2C(F)(F)F)c1)S(C)(=O)=O` (stereo unspecified), the Emax in the experiment filed under Homo sapiens amounted to 99%.

As to `Cc1ncsc1-c1ccc(CNC(=O)[C@@H]2C[C@@H](O)CN2C(=O)[C@@H](NC(=O)COCCCOc2ccc(Nc3ncc(C(F)(F)F)c(NCc4cccc(N(C)S(C)(=O)=O)c4)n3)cc2)C(C)(C)C)cc1`, the Emax in the experiment listed under Homo sapiens stood at 99%.

For the molecule `CNC(=O)c1ccc(Nc2ncc(C(F)(F)F)c(NCc3nccnc3N(C)S(C)(=O)=O)n2)cc1`, the Emax in the experiment listed under Homo sapiens is 0%.

As to `CN(c1cccc(CNc2nc(Nc3ccc(OCCOCCOCCC(=O)NCCOc4cccc5c4C(=O)N(C4CCC(=O)NC4=O)C5=O)cc3)ncc2C(F)(F)F)c1)S(C)(=O)=O` (stereo unspecified), in the experiment filed under Homo sapiens, the Emax came out at 99%. Besides, in “cells”, the DC50 turned out to be 26.7 nM.

For the molecule `Cc1ncsc1-c1ccc(CNC(=O)[C@@H]2C[C@@H](O)CN2C(=O)[C@@H](NC(=O)CCOCCCOc2ccc(Nc3ncc(C(F)(F)F)c(NCc4cccc(N(C)S(C)(=O)=O)c4)n3)cc2)C(C)(C)C)cc1`, the Emax in the experiment filed under Homo sapiens stood at 99%.
